{"source": "patent US4575496A", "about": "“Erythromycin salt of the o-carbonyl(1-thiazolidinyl)-benzoic acid and pharmaceutical compositions containing it” (Camillo Corvi S.p.A., priority 1983, dated 1986)", "key": {"Staph. aureus 1414": {"tested_on": "Staph. aureus 1414", "experiment": "Antimicrobic activity, in vitro (CIM)", "type": "cell-based, Staph. aureus 1414 (ATCC)", "conditions": "Staph. aureus 1414, in vitro", "description": "(§1) Chim.Farm.119, p.181, 1980.\n(§2) Antimicrobic activity, in vitro.\n(§3) CIM^(1) values (mcg/ml)\n(§4) ^(1) CIM = Mic = Minimal inhibitory concentration\n(§5) ^(3) The 4digit strains are ATCC's"}, "Staph. aureus 6538": {"tested_on": "Staph. aureus 6538", "experiment": "Antimicrobic activity, in vitro (CIM)", "type": "cell-based, Staph. aureus 6538 (ATCC)", "conditions": "Staph. aureus 6538, in vitro", "description": "as §1, §2, §3, §4, §5"}, "Staph. epiderm. clin. [1]": {"tested_on": "Staph. epiderm. clin.", "experiment": "Antimicrobic activity, in vitro (CIM), first clinical isolate", "type": "cell-based, Staph. epiderm. (isolated clinically)", "description": "as §1, §2, §3, §4\n(§6) ^(2) Clin. = Isolated clinically."}, "Staph. epiderm. clin. [2]": {"tested_on": "Staph. epiderm. clin.", "experiment": "Antimicrobic activity, in vitro (CIM), second clinical isolate", "type": "cell-based, Staph. epiderm. (isolated clinically)", "description": "as §1, §2, §3, §4, §6"}, "Micrococcus luteus 9341": {"tested_on": "Micrococcus luteus 9341", "experiment": "Antimicrobic activity, in vitro (CIM)", "type": "cell-based, Micrococcus luteus 9341 (ATCC)", "conditions": "Micrococcus luteus 9341, in vitro", "description": "as §1, §2, §3, §4, §5"}, "Strept. faecalis 8043": {"tested_on": "Strept. faecalis 8043", "experiment": "Antimicrobic activity, in vitro (CIM)", "type": "cell-based, Strept. faecalis 8043 (ATCC)", "conditions": "Strept. faecalis 8043, in vitro", "description": "as §1, §2, §3, §4, §5"}, "Candida albicans": {"tested_on": "Candida albicans", "experiment": "Antimicrobic activity, in vitro (CIM)", "type": "cell-based", "description": "as §1, §2, §3, §4"}, "Escherichia coli 418": {"tested_on": "Escherichia coli 418", "experiment": "Antimicrobic activity, in vitro (CIM)", "type": "cell-based", "conditions": "Escherichia coli 418, in vitro", "description": "as §1, §2, §3, §4"}, "Proteus vulgaris": {"tested_on": "Proteus vulgaris", "experiment": "Antimicrobic activity, in vitro (CIM)", "type": "cell-based", "description": "as §1, §2, §3, §4"}, "Pseudomonas aeruginosa": {"tested_on": "Pseudomonas aeruginosa", "experiment": "Antimicrobic activity, in vitro (CIM)", "type": "cell-based", "description": "as §1, §2, §3, §4"}, "Serr. marcescens cl.": {"tested_on": "Serr. marcescens cl.", "experiment": "Antimicrobic activity, in vitro (CIM)", "type": "cell-based, Serr. marcescens (isolated clinically)", "description": "as §1, §2, §3, §4, §6"}, "staphylococcus aureus [3]": {"tested_on": "staphylococcus aureus", "set-up": "unit not given beside the values", "conditions": "intramuscular", "description": "In Table 4, the activity data relating to the mucus production in the rabbit is reported, according to the method by Scuri et al., published in Boll. Chim.Farm.119, p.181, 1980."}, "rabbit mucoproduction": {"tested_on": "rabbit mucoproduction", "experiment": "Activity on the rabbit mucoproduction (method of Scuri et al.)", "type": "in vivo", "description": "as §1\nActivity on the rabbit mucoproduction."}, "rat": {"tested_on": "rat", "experiment": "Oral acute toxicity in the rat", "type": "in vivo", "description": "as §1\n(§7) Oral acute toxicity in the rat"}, "staphylococcus aureus [4]": {"tested_on": "staphylococcus aureus", "set-up": "unit not given beside the values", "conditions": "oral, 1 treatment"}, "[5]": {"experiment": "Oral acute toxicity in the rat", "type": "in vivo", "conditions": "in vivo, rat, read-out: DL50 (the source's name)", "description": "as §1, §7"}, "[6]": {"conditions": "Staphylococcus aureus, read-out: CIM (Mic, minimal inhibitory concentration)"}, "[7]": {"conditions": "read-out: CIM (Mic, minimal inhibitory concentration)"}}, "note": "Several values for one entry are separate records, joined by “and”; a condition that tells them apart may be missing. Equal entries are not always repeated. Where two headings read alike, the source gives them in different places."}
{"compound": "CC[C@H]1OC(=O)[C@H](C)[C@@H](O[C@H]2C[C@@](C)(OC)[C@@H](O)[C@H](C)O2)[C@H](C)[C@@H](O[C@@H]2O[C@H](C)C[C@H](N(C)C)[C@H]2O)[C@](C)(O)C[C@@H](C)C(=O)[C@H](C)[C@@H](O)[C@]1(C)O.O=C(O)c1ccccc1C(=O)N1CCSC1", "note": "[CO/1316, erythromycin salt of o-carbonyl(1-thiazolidinyl)-benzoic acid]", "values": [{"measurement": "CIM (Mic, minimal inhibitory concentration)", "setting": "Staph. aureus 1414", "result": 10, "unit": "µg/mL"}, {"measurement": "CIM (Mic, minimal inhibitory concentration)", "setting": "Staph. aureus 6538", "result": 10, "unit": "µg/mL"}, {"measurement": "CIM (Mic, minimal inhibitory concentration)", "setting": "Staph. epiderm. clin. [1]", "result": 10, "unit": "µg/mL"}, {"measurement": "CIM (Mic, minimal inhibitory concentration)", "setting": "Staph. epiderm. clin. [2]", "result": 0.1, "unit": "µg/mL"}, {"measurement": "CIM (Mic, minimal inhibitory concentration)", "setting": "Micrococcus luteus 9341", "result": 0.1, "unit": "µg/mL"}, {"measurement": "CIM (Mic, minimal inhibitory concentration)", "setting": "Strept. faecalis 8043", "result": 0.6, "unit": "µg/mL"}, {"measurement": "CIM (Mic, minimal inhibitory concentration)", "setting": "Candida albicans", "result": 100, "unit": "µg/mL"}, {"measurement": "CIM (Mic, minimal inhibitory concentration)", "setting": "Escherichia coli 418", "result": 50, "unit": "µg/mL"}, {"measurement": "CIM (Mic, minimal inhibitory concentration)", "setting": "Proteus vulgaris", "result": 5, "unit": "µg/mL"}, {"measurement": "CIM (Mic, minimal inhibitory concentration)", "setting": "Pseudomonas aeruginosa; in vitro", "result": "+100 mcg/ml"}, {"measurement": "CIM (Mic, minimal inhibitory concentration)", "setting": "Serr. marcescens cl.", "result": 100, "unit": "µg/mL"}, {"measurement": "DI50", "setting": "staphylococcus aureus [3]; medium infection, 5 treatments", "result": "76 and 152"}, {"measurement": "DI50", "setting": "staphylococcus aureus [3]; serious infection, 1 treatment", "result": "210 and 390"}, {"measurement": "Anim. with increase / Treated anim.", "setting": "rabbit mucoproduction; 40 mg/kg ev", "result": "9/14"}, {"measurement": "Anim. with increase / Treated anim., %", "setting": "rabbit mucoproduction; 40 mg/kg ev", "result": "64/2"}, {"measurement": "Mucoproduction: Var. %", "setting": "rabbit mucoproduction; 40 mg/kg ev", "result": "+45%"}, {"measurement": "acute oral toxicity compared with erythromycin base", "setting": "rat", "result": "substantially coincides with that of the erythromycin base"}, {"measurement": "DL50", "setting": "rat; rat", "result": "> 5.0", "unit": "g/kg"}, {"measurement": "DI50", "setting": "staphylococcus aureus [4]; medium infection", "result": "350 and 510"}, {"measurement": "DI50", "setting": "staphylococcus aureus [4]; serious infection", "result": "560 and 720"}, {"measurement": "Solubility in 95% ethanol", "setting": "95% ethanol", "result": 32, "unit": "%"}, {"measurement": "Solubility in acetone", "setting": "acetone", "result": 50, "unit": "%"}, {"measurement": "Solubility in chloroform", "setting": "chloroform", "result": 50, "unit": "%"}, {"measurement": "Solubility in dioxane", "setting": "dioxane", "result": 15, "unit": "%"}, {"measurement": "Solubility in ethanol", "setting": "ethanol", "result": 50, "unit": "%"}, {"measurement": "Solubility in ethyl ether", "setting": "ethyl ether", "result": 0.1, "unit": "%"}, {"measurement": "Solubility in methanol", "setting": "methanol", "result": 57, "unit": "%"}, {"measurement": "Solubility in n-hexane", "setting": "n-hexane", "result": "pratically insoluble"}, {"measurement": "Solubility in toluene", "setting": "toluene", "result": 0.3, "unit": "%"}, {"measurement": "Solubility in water", "setting": "water, ambient temperature", "result": 3, "unit": "% W/V"}]}
{"compound": "CC[C@H]1OC(=O)[C@H](C)[C@@H](O[C@H]2C[C@@](C)(OC)[C@@H](O)[C@H](C)O2)[C@H](C)[C@@H](O[C@@H]2O[C@H](C)C[C@H](N(C)C)[C@H]2O)[C@](C)(O)C[C@@H](C)C(=O)[C@H](C)[C@@H](O)[C@]1(C)O", "note": "[Erythromycin]", "values": [{"measurement": "MIC", "setting": "Staph. aureus 1414; [6]", "result": 10, "unit": "µg/mL"}, {"measurement": "MIC", "setting": "Staph. aureus 6538; [6]", "result": 10, "unit": "µg/mL"}, {"measurement": "MIC", "setting": "Staph. epiderm. clin. [1]; [7]", "result": 10, "unit": "µg/mL"}, {"measurement": "MIC", "setting": "Staph. epiderm. clin. [2]; [7]", "result": 0.1, "unit": "µg/mL"}, {"measurement": "MIC", "setting": "Micrococcus luteus 9341; [7]", "result": 0.1, "unit": "µg/mL"}, {"measurement": "MIC", "setting": "Strept. faecalis 8043; Enterococcus faecalis, read-out: CIM (Mic, minimal inhibitory concentration)", "result": 0.3, "unit": "µg/mL"}, {"measurement": "MIC", "setting": "Candida albicans; [7]", "result": 100, "unit": "µg/mL"}, {"measurement": "MIC", "setting": "Escherichia coli 418; [7]", "result": 25, "unit": "µg/mL"}, {"measurement": "MIC", "setting": "Proteus vulgaris; [7]", "result": 2.5, "unit": "µg/mL"}, {"measurement": "MIC", "setting": "Pseudomonas aeruginosa; [7]", "result": 100, "unit": "µg/mL"}, {"measurement": "MIC", "setting": "Serr. marcescens cl.; Serratia marcescens, read-out: CIM (Mic, minimal inhibitory concentration)", "result": 50, "unit": "µg/mL"}, {"measurement": "Anim. with increase / Treated anim.", "setting": "rabbit mucoproduction; 30 mg/kg ev", "result": "0/10"}, {"measurement": "Mucoproduction: Var. %", "setting": "rabbit mucoproduction; 30 mg/kg ev", "result": "Inactive"}, {"measurement": "LD50", "setting": "[5]", "result": "> 5000", "unit": "mg/kg"}]}
